{"source": "patent US12115373B2", "about": "“Methods for reducing the risk of strokes by pharmacotherapy to reduce the number and duration of atrial fibrillations” (Xyra, LLC, priority 2022, dated 2024)", "origin": "cited, not measured here", "details": "in 2016; reported by the Market Insider; cited from earlier work", "data": [{"compound": "O=C(NC[C@H]1CN(c2ccc(N3CCOCC3=O)cc2)C(=O)O1)c1ccc(Cl)s1", "note": "[Xarelto, rivaroxaban]", "values": [{"measurement": "adverse events", "value": "over 15,000"}]}]}
